How the values were obtained:
[1] = system: Rhipicephalus sanguineus ticks; experiment: Tick control on dogs (experimental infestation, tick counts and efficacy); assay type: in vivo; design: Tick efficacies, arithmetic mean / Tick efficacies, geometric mean: concentration or dose not given beside the values
Procedure: The SCALIBOR® collar was administered to dogs according to the instructions in the Product leaflet. The topical formulation of indoxacarb was administered to dogs in Groups 3 and 4 according to the dose table below:
A 4% deltamethrin-impregnated collar (SCALIBOR®, Merck Animal Health) is used to protect dogs from the bites of sand flies (Phlebotomus sp.), mosquitoes (Culex sp.), and ticks for up to six months with high persistent efficacy. Immediate efficacy of the collar against fleas is known to be inadequate.
The study was conducted on four groups of eight dogs each. • Group 1: Negative control. • Group 2: Dogs were fitted with the Scalibor® collar on Day 0. • Group 3: Dogs were treated with a topical formulation of indoxacarb on Days 0, 30, 60, 90, 120, 150, and 180 (once a month for 6 months). • Group 4: Dogs were fitted with the Scalibor® collar (4% deltamethrin) on Day 0 and treated with a topical formulation of indoxacarb on Days 0, 30, 60, 90, 120, 150, and 180 (once a month for 6 months). Dogs were experimentally infested with 100 fleas and 50 ticks two days before treatment (Day 0) and then on various days throughout the study.
Efficacy against ticks and fleas was calculated for each treatment group at each assessment day according to the formulas given below. Due to the fact that small and even zero tick and flea counts were recorded, it was expected that the tick and flea counts would not follow a normal distribution. It was therefore decided that the primary efficacy calculations would be based on geometric means rather than arithmetic means. The calculations were based on the geometric means of the tick or flea (count+1) data. One (1) was subsequently subtracted from the result to obtain a meaningful value for the geometric mean of each treatment group. Efficacy calculations based on arithmetic means were, however, also reported on.
Percent efficacy against ticks was calculated as follows:
Efficacy(%)=100×(Gmc−Gmt)/Gmc, where:
Gmc=Geometric or arithmetic mean number of live ticks (categories 1-3) on dogs in the control group (Group 1) at a specific time point. Gmt=Geometric or arithmetic mean number of live ticks (categories 1-3; immediate Day+2 efficacy) and dead attached engorged ticks (category 6; residual >Day+2 efficacies) on dogs in the treatment groups (Groups 2, 3 & 4) at a specific time point.

[2] = system: voltage-dependent sodium channels expressed in DUM neurons; experiment: Whole-cell patch-clamp of voltage-dependent inward sodium current in isolated DUM neuron cell bodies; assay type: cell-based, cockroaches (Periplaneta Americana)
Procedure: Experiments were performed on dorsal unpaired median (DUM) neuron cell bodies (Grolleau and Lapied (2000), J. Exp. Biol., 203, 1633-1648) isolated from the dorsal midline of the terminal abdominal ganglion of adult male cockroaches (Periplaneta Americana) taken from a stock colony, maintained at 29° C. with a photoperiod of 12 hours light:12 hours dark.
Adult male cockroaches were immobilised dorsal-side up on a dissection dish. The dorsal cuticle, gut and some dorso-longitudinal muscles were removed, to allow access to the ventral nerve cord. The abdominal nerve cord and its terminal abdominal ganglion (TAG), carefully dissected under a binocular microscope, were placed in normal saline. Isolation of adult DUM neuron cell bodies was performed under sterile conditions using enzymatic digestion and mechanical dissociation of the median part of the TAG (Lapied et al. (1989), J. Exp. Biol., 144, 535-549).
Ganglia were excised and incubated for 35 min at 29° C. in cockroach saline supplemented with 1.5 mg/ml collagenase (type I, Worthington, Lakewood, N.J.). After thoroughly washing off the enzyme, ganglia were mechanically dissociated by gentle repeated suctions through fire-polished Pasteur pipettes. Then, the isolated DUM neuron cell bodies were maintained at 29° C. for 24 hours before experiments are carried out.
Isolated neuronal cell bodies were used for electrophysiological studies. […] A total number of six different isolated cell bodies (six replicates) were used for each experiment.
Deltamethrin and DCJW (IN-JT333), stock solutions (100 mM and 10 mM, respectively) were prepared in dimethylsulphoxide (DMSO, Sigma Chemical, France). Final dilutions contained a maximum of 0.1% DMSO.
Deltamethrin and DCJW, prepared in cockroach saline, were applied separately by a gravity perfusion system onto isolated cell body maintained in short-term culture.
Experiments were carried out at room temperature (20° C.).
The patch-clamp technique in the whole-cell recording configuration (voltage-clamp condition) was used to record voltage-dependent inward sodium current. […]
For each time point, relative sodium current amplitudes are expressed as means±standard errors of the mean (SEM) (table 2). […]
In addition to the concomitant application of deltamethrin and DCJW, the effect of the mixture DCJW (10^−7M) and deltamethrin (10^−5 M) on DUM neuron was assessed after a pre-treatment of the cell body by deltamethrin (10^−5 M) for 5 minutes. […]
As in Example 2, for each time point, relative sodium current amplitudes were expressed as means±standard errors of the mean (SEM). […]

[3] = Day +2 (immediate), vs negative control
[4] = Day +2, count ~48 h after treatment or infestation
[5] = Day +16, count ~48 h after infestation
[6] = Day +30, count ~48 h after infestation
[7] = Day +44, count ~48 h after infestation
[8] = Day +72, count ~48 h after infestation
[9] = Day +100, count ~48 h after infestation
[10] = Day +128, count ~48 h after infestation
[11] = Day +156, count ~48 h after infestation
[12] = Day +170, count ~48 h after infestation
[13] = Day +184, count ~48 h after infestation
[14] = DCJW 10^-7 M alone, after 20 minutes

## CC1(C)[C@H](C(=O)O[C@H](C#N)c2cccc(Oc3ccccc3)c2)[C@@H]1C=C(Br)Br [deltamethrin, (S)-α-Cyano-3-phenoxybenzyl-(1R,3R)-3-(2,2-dibromovinyl)-2,2-dimethylcyclopropanecarboxylate]
[1]; [3]
  Tick efficacies, geometric mean: 76.9%

## N#Cc1ccc(CC(=NNC(=O)Nc2ccc(OC(F)(F)F)cc2)c2cccc(C(F)(F)F)c2)cc1 (mixture of isomers) [metaflumizone E/Z, (EZ)-2012-(4-cyanophenyl)-1-(a,a,a-trifluoro-mtolypethylidene]-4 (trifluoromethoxy) carbanilohydrazide]
[2]; bath application at different concentrations (10^-10 to 10^-5 M), alone
  Effect on the sodium current amplitude: produced a reduction of the sodium current amplitude
[2]; different concentrations (10^-10 to 10^-5 M), alone
  Dose dependence of the reduction of sodium current amplitude: not dose-dependent

## COC(=O)N(C(=O)N1CO[C@@]2(C(=O)OC)Cc3cc(Cl)ccc3C2=N1)c1ccc(OC(F)(F)F)cc1 [indoxacarb, (5)-methyl 7-chloro-2,5-dihydro-2-[[(methoxycarbonyl) [4-(trifluoromethoxy)phenyl]amino]carbonyl]indeno[1,2-e][1,3,4]oxadiazine-4a(3H)-carboxylate]
[1]; [3]
  Tick efficacies, arithmetic mean: 13.3%
  Tick efficacies, geometric mean: 15.5%
[1]; [4]
  Tick counts, arithmetic mean: 18.8
  Tick counts, geometric mean: 18.1^4
[1]; Day +2 to Day 184
  Immediate or persistent effectiveness against R. sanguineus ticks: No immediate or persistent effectiveness
[1]; [5]
  Tick counts, arithmetic mean: 13.8
  Tick counts, geometric mean: 12.1^4
[1]; Day +16, vs negative control
  Tick efficacies, arithmetic mean: 34.3%
  Tick efficacies, geometric mean: 37.4%
[1]; [6]
  Tick counts, arithmetic mean: 14.0
  Tick counts, geometric mean: 9.8^2,4
[1]; Day +30, vs negative control
  Tick efficacies, arithmetic mean: 42.0%
  Tick efficacies, geometric mean: 58.7%
[1]; [7]
  Tick counts, arithmetic mean: 18.4
  Tick counts, geometric mean: 18.0^4
[1]; Day +44, vs negative control
  Tick efficacies, arithmetic mean: 25.0%
  Tick efficacies, geometric mean: 25.8%
[1]; [8]
  Tick counts, arithmetic mean: 24.5
  Tick counts, geometric mean: 23.5^4
[1]; Day +72, vs negative control
  Tick efficacies, arithmetic mean: 20.0%
  Tick efficacies, geometric mean: 20.9%
[1]; [9]
  Tick counts, arithmetic mean: 18.3
  Tick counts, geometric mean: 16.0^4
[1]; Day +100, vs negative control
  Tick efficacies, arithmetic mean: 35.4%
  Tick efficacies, geometric mean: 40.9%
[1]; [10]
  Tick counts, arithmetic mean: 24.5
  Tick counts, geometric mean: 22.6^4
[1]; Day +128, vs negative control
  Tick efficacies, arithmetic mean: 12.1%
  Tick efficacies, geometric mean: 16.0%
[1]; [11]
  Tick counts, arithmetic mean: 25.4
  Tick counts, geometric mean: 25.0^4
[1]; Day +156, vs negative control
  Tick efficacies, arithmetic mean: 12.1%
  Tick efficacies, geometric mean: 12.2%
[1]; [12]
  Tick counts, arithmetic mean: 21.1
  Tick counts, geometric mean: 19.9^4
[1]; Day +170, vs negative control
  Tick efficacies, arithmetic mean: 18.4%
  Tick efficacies, geometric mean: 20.0%
[1]; [13]
  Tick counts, arithmetic mean: 18.3
  Tick counts, geometric mean: 17.1^4
[1]; Day +184, vs negative control
  Tick efficacies, arithmetic mean: 25.1%
  Tick efficacies, geometric mean: 28.3%

## COC(=O)C12Cc3cc(Cl)ccc3C1=NN(C(=O)Nc1ccc(OC(F)(F)F)cc1)CO2 (stereo not shown) [DCJW, methyl 7-chloro-2,5-dihydro-2-[[[4-(trifluoromethoxy)phenyl]amino]carbonyl]indeno-[1,2-e][1,3,4]oxadiazine-4a(3H)-carboxylate]
[2]; [14]
  Percentage of inhibition of the sodium current amplitude: 40.7%
  Sodium current amplitude (relative to control current 100%): 59.3%
